The target in test [1] is T1, FGF receptor tyrosine kinase (human FGF-1 (flg)) (Homo sapiens, UniProt P11362).
T1 construct: PCR primers are designed to amplify a fragment of DNA that codes for the intracellular tyrosine kinase domain; made in house; host or cells: Sf9 insect cells (baculovirus), cell lysate
As to the kind of experiment: FGFr tyrosine kinase assay (poly glutamate-tyrosine phosphorylation). To be noted: Table 1; 10 minutes at 25° C. Type of test: biochemical. As to the method:
Platelet Derived Growth Factor Receptor (PDGFr) and Fibroblast Growth Factor Receptor (FGFr) Full length cDNAs for the mouse PDGF-β and human FGF-1 (flg) receptor tyrosine kinases were obtained from J. Escobedo and are prepared as described in J. Biol. Chem., 262: 1482-1487 (1991). PCR primers are designed to amplify a fragment of DNA that codes for the intracellular tyrosine kinase domain. The fragment is […] into a baculovirus vector, cotransfected with AcMNPV DNA, and the recombinant virus isolated. SF9 insect cells are infected with the virus to overexpress the protein, and the cell lysate is used for the […] and FGFr The assay is performed in 96-well plates (100 μL/incubation/well), and conditions are optimized to measure the incorporation of ^32 p from [γ^32 P]-ATP into a glutamate-tyrosine copolymer substrate. […] The reaction is terminated by the addition of 100 μL of 30% trichloroacetic acid (TCA) containing 20 mM sodium pyrophosphate and precipitation of material onto glass fiber filter mats (Wallac). Filters are washed 3 times with 15% TCA containing 100 mM sodium pyrophosphate and the radioactivity retained on the filters counted in a Wallac 1250 Betaplate reader. Nonspecific activity is defined as radioactivity retained on the filters following incubation of samples with buffer alone (no enzyme). Specific enzymatic activity is defined as total activity (enzyme plus buffer) minus nonspecific activity.

The next test deals with T2, c-Src (Homo sapiens, UniProt P12931).
T2 construct: made in house; host or cells: baculovirus infected insect cells
As to the kind of experiment: c-Src kinase assay. It is filed as biochemical. To be noted: Table 1; 5 μM ATP, room temperature, 10 minutes. As for the experimental part:
c-Src kinase is purified from baculovirus infected insect cell lysates using an antipeptide monoclonal antibody directed against the N-terminal 2-17 amino acids as described previously by Fry, et al, Anticancer Drug Design. 9: 331-351 (1994). […] At the end of the lysate incubation, the beads are rinsed 3 times in lysis buffer, resuspended in lysis buffer containing 10% glycerol, and frozen. These latex beads are thawed, rinsed 3 times in assay buffer which is comprised of 40 mM tris pH 7.5, 5 mM magnesium chloride, and suspended in the same buffer. […] The reaction is started at room temperature by addition of the ATP and quenched 10 minutes later by the addition of 125 μL of 30% TCA, 0.1 M sodium pyrophosphate for 15 minutes on ice. The plate is then filtered and the wells washed with two 250-μL aliquots of 15% TCA, 0.1 M pyrophosphate. The filters are punched, counted in a liquid scintillation counter, and the data examined for inhibitory activity in comparison to a known inhibitor such as erbstatin. The method is described more fully in J. Med. Chem., 37: 598-609 (1994).

A further test has as its target Protein kinase C (PKC). As to the kind of experiment: PKC assay. It is filed as biochemical. The note with it: Table 1; rat brain preparation.
In another test the target is T3, insulin receptor (INSr) (Homo sapiens, UniProt P06213).
T3 construct: An assay using the intracellular kinase domains of insulin receptor (INSr) is performed
As to the kind of experiment: Insulin receptor kinase assay. It is filed as biochemical. To be noted: Table 1; as for EGF receptor with 10 mM manganese chloride.

Test [2] concerns the target T4, Human EGF receptor tyrosine kinase (Homo sapiens, UniProt P00533).
T4 construct: Human EGF receptor tyrosine kinase is isolated from A431 human epidermoid carcinoma cells; endogenous in cells; host or cells: A431 human epidermoid carcinoma cells (detergent lysate, fast Q sepharose fractions)
As to the kind of experiment: EGFr tyrosine kinase assay. It is filed as biochemical. To be noted: Table 1; 10 μM ATP, 25° C., 10 minutes.

Test [3] addresses MAP Kinase Pathway (GST-MEK / GST-MAPK). As to the kind of experiment: Cascade Assay for Inhibitors of the MAP Kinase Pathway (APK Assay). The note with it: Table 1; 50 μM ATP, 20 minutes. It is filed as biochemical. As to the method:
Cascade Assay for Inhibitors of the MAP Kinase Pathway (APK Assay) Incorporation of ^32 P into myelin basic protein (MBP) is assayed in the presence of a glutathione S-transferase fusion protein containing p44MAP kinase (GST-MAPK) and a glutathione S-transferase fusion protein containing p45MEK (GST-MEK). […] Reactions are stopped after 20 minutes by addition of trichloroacetic acid and filtered through a GF/C filter mat. ^32 P retained on the filter mat is determined using a 1205 betaplate. […] To ascertain whether compounds are inhibiting GST-MEK or GST MAPK, two additional protocols are employed. In the first protocol, compounds are added to tubes containing GST MEK, followed by addition of GST-MAPK, MBP and [γ^32 P]ATP. In the second protocol, compounds are added to tubes containing both GST-MEK and GST-MAPK, followed by MBP and [γ^32 P]ATP. Compounds that show activity in both protocols are scored as […], while compounds showing activity in only the first protocol are scored as MEK inhibitors.

Test [4] relates to PDGF receptor autophosphorylation in rat aorta smooth muscle cells. As to the kind of experiment: PDGF Receptor Autophosphorylation Assay in rat aorta smooth muscle cells. It is filed as cell-based. The note with it: Table 2, PDGF-BB 30 ng/mL, 2 hours pre-incubation, read-out: IC50, inhibition of PDGF-stimulated receptor autophosphorylation.
Protocol: Rat aorta smooth muscle cells (RASMC) are isolated from the thoracic aorta of rats and explanted according to the method of Ross, J. Cell. […] Cells are grown in Dulbecco's modified Eagle's medium (DMEM, Gibco) containing 10% fetal calf serum (FBS, Hyclone, Logan, Utah), 1% glutamine (Gibco) and 1% penicillin/streptomycin (Gibco). Cells are identified as smooth muscle cells by their "hill and valley" growth pattern and by fluorescent staining with a monoclonal antibody specific for SMC μ-actin (Sigma). RASMC are used between passages 5 and 20 for all experiments. Test compounds are prepared in dimethylsulfoxide (DMSO) in order to achieve consistency in the vehicle and to ensure compound solubility. Appropriate DMSO controls are simultaneously evaluated with the test compounds.
Rat aortic smooth muscle cells are grown to confluencey in 100 mm dishes. Growth medium is removed and replaced with serum-free medium and cells are incubated at 37° C. for an additional 24 hours. Test compounds are then added directly to the medium and cells incubated for an additional 2 hours. After 2 hours PDGF-BB is added at a final concentration of 30 ng/mL for 5 minutes at 37° C. to stimulate autophosphorylation of PDGF receptors. Following growth factor treatment, the medium is removed, and cells are washed with cold phosphate-buffered saline and immediately lysed with 1 mL of lysis buffer (50 mM Hepes, pH 7.5, 150 mM NaCl, 10% glycerol, 1% Triton-X 100, 1 mM EDTA, 1 mM EGTA, 50 mM NaF, 1 mM sodium orthovanadate, 30 mM p-nitrophenyl phosphate, 10 mM sodium pyrophosphate, 1 mM phenylmethyl sulfonyl fluoride, 10 μg/mL aprotinin and 10 μg/mL leupeptin). Lysates are centrifuged at 10,000 ×g for 10 minutes. […] Following the incubation, protein-A-sepharose beads are added for 2 hours with continuous mixing, and immune complexes bound to the beads washed 4 times with 1 mL lysis wash buffer. Immune complexes are solubilized in 40 μL of Laemmli sample buffer and electrophoresed in 8-16% SDS polyacrylamide gels. Following electrophoresis, separated proteins are transferred to nitrocellulose and immunoblotted with a 1:1000 dilution of antiphosphotyrosine monoclonal antibody (UBI clone 4G10; #05-321). Following extensive washing with PBS-0.2% tween-20, the blots are incubated with horseradish peroxidase labeled goat antimouse IgG (1:5000; Bio-Rad Inc, Hercules, Calif.) and protein levels are detected by enhanced chemiluminescence (ECL) detection system according to the instructions of the supplier (Amersham Inc, Arlington Heights, Ill.). The density of the protein bands are determined using NIH Image software (v. 1.56) and IC50 values are generated from the densitometric data.
In test [5] the target is T5, PDGF receptor tyrosine kinase (mouse PDGF-β) (Mus musculus, UniProt P05622).
T5 construct: PCR primers are designed to amplify a fragment of DNA that codes for the intracellular tyrosine kinase domain; made in house; host or cells: Sf9 insect cells (baculovirus), cell lysate
As to the kind of experiment: PDGFr tyrosine kinase assay (poly glutamate-tyrosine phosphorylation). It is filed as biochemical. The note with it: Table 1; 10 minutes at 25° C. As for the experimental part: Platelet Derived Growth Factor Receptor (PDGFr) and Fibroblast Growth Factor Receptor (FGFr)
Full length cDNAs for the mouse PDGF-β and human FGF-1 (flg) receptor tyrosine kinases were obtained from J. Escobedo and are prepared as described in J. Biol. Chem., 262: 1482-1487 (1991). PCR primers are designed to amplify a fragment of DNA that codes for the intracellular tyrosine kinase domain. The fragment is melded into a baculovirus vector, cotransfected with AcMNPV DNA, and the recombinant virus isolated. SF9 insect cells are infected with the virus to overexpress the protein, and the cell lysate is used for the assay.
The assay is performed in 96-well plates (100 μL/incubation/well), and conditions are optimized to measure the incorporation of ^32 p from [γ^32 P]-ATP into a glutamate-tyrosine copolymer substrate. Briefly, to each well is added 82.5 μL of incubation buffer containing 25 mM Hepes (pH 7.0), 150 mM NaCl, 0.1% Triton X-100, 0.2 mM PMSF, 0.2 mM sodium vanadate, 10 mM manganese chloride, and 750 μg/mL of poly (4:1) glutamate-tyrosine followed by 2.5 μL of inhibitor and 5 μL of enzyme lysate (7.5 μg/μL FGFR-TK or 6.0 μg/μL PDGFR-TK) to initiate the reaction. Following a 10 minute incubation at 25° C., 10 μL of [γ^32 P]-ATP (0.4 μCi plus 50 μM ATP) is added to each well and samples are incubated for an additional 10 minutes at 25° C. The reaction is terminated by the addition of 100 μL of 30% trichloroacetic acid (TCA) containing 20 mM sodium pyrophosphate and precipitation of material onto glass fiber filter mats (Wallac). Filters are washed 3 times with 15% TCA containing 100 mM sodium pyrophosphate and the radioactivity retained on the filters counted in a Wallac 1250 Betaplate reader. Nonspecific activity is defined as radioactivity retained on the filters following incubation of samples with buffer alone (no enzyme). Specific enzymatic activity is defined as total activity (enzyme plus buffer) minus nonspecific activity.

Test [6] relates to SW-620 cells. As to the kind of experiment: Human Colon Carcinoma Growth Delay Assay. It is filed as cell-based. The note with it: 72 h, Table 3, SW-620, 3 days. As for the experimental part:
Human Colon Carcinoma Growth Delay Assay Human colon carcinoma cells are seeded into 96-well tissue culture plates in a final volume of 180 μL of 10% fetal bovine serum containing growth media and allowed to incubate overnight (37° C., 5% CO2, 95% air). Cells of the SW620 cell line are seeded at 1.0-1.5×10^4 cells per well. Cells of the HCT8 and HT29 cell lines are seeded at 2-4×10^3 cells per well. […] At the end of the incubation period, cells are fixed with 100 μL per well of 10% trichloroacetic acid after removing the drug/culture medium. The plates are washed 5 times with tap water and stained with 100 μL per well of 0.075% sulforhodamine B in 1% acetic acid for 10 minutes. The plates are rinsed 4 times and allowed to air dry. The stain in the wells are solubilized by the addition of 10 mM unbuffered Tris base and the absorbance read using a microtiter plate optical reader. Inhibition of cell growth is calculated from absorbance data of the treated cells compared to untreated control cells. Table 3 provides data for inhibition of growth in human adenocarcinoma cell lines.

Test [7] deals with SW-620 cells. As to the kind of experiment: Human Colon Carcinoma Clonogenic Assay. It is filed as cell-based. As for the experimental part: SW620 cells are seeded at 7×10^5 per well; HCT8 cells are seeded at 5×10^5 per well; HT29 cells are seeded at 4×10^5 cells per well. Serially diluted drugs are prepared at 200 ×the final concentration and 15 μL are added to each of duplicate wells. Cells are incubated with drug for 2 days, rinsed once with 1 mL of trypsin+EDTA, and then trypsinized with the same trypsin solution. […] One milliliter of each of these cell suspensions is added to duplicate wells of 6 well plates previously prepared with 10% serum/growth medium/ 1% agarose plugs. The cells in these plates are incubated for approximately 2 weeks in the incubator and stained with 1 mL per well of 1 mg/mL iodonitrotetrazolium violet stain. The visible colonies are counted with an electronic optical colony counter and the clonogenicity of treated cells calculated in comparison to untreated control cells.

[8] abbreviates: Table 3, SW-620, 2 days drug exposure, approximately 2 weeks colony growth, read-out: SW-620 Clonogenic IC50.

The source of these data is patent publication US5990146A, “Benzimidazoles for inhibiting protein tyrosine kinase mediated cellular proliferation” (Warner-Lambert Company, priority 1998, dated 1999).

In general, pIC50 refers to the negative decadic logarithm of the IC50, by convention in mol/L.

pIC50: −log10 of the molar value. Where a name gives a salt, the structure may show the parent alone. A value given as a limit tells only on which side of the number the result lay.

T1 sequence (P11362 478-767 limits assumed): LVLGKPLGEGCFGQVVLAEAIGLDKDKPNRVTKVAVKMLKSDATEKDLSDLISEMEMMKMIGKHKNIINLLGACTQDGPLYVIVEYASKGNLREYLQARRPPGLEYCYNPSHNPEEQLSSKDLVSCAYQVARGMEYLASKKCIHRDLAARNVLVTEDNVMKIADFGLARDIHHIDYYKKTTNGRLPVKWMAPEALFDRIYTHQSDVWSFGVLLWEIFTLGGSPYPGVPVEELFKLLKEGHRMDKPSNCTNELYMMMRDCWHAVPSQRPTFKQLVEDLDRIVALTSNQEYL
T5 sequence (P05622 599-961 limits assumed): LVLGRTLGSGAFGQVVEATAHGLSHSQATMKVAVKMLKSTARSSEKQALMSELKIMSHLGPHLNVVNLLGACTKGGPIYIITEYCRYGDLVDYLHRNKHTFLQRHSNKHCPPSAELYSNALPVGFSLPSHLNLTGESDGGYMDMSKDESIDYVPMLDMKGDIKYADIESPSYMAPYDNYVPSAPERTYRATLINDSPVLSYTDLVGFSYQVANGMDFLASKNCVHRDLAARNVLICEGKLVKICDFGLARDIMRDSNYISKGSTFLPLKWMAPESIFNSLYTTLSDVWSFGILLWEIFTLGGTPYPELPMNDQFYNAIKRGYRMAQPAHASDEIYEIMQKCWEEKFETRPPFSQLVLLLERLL
T4 sequence (P00533 25-1210): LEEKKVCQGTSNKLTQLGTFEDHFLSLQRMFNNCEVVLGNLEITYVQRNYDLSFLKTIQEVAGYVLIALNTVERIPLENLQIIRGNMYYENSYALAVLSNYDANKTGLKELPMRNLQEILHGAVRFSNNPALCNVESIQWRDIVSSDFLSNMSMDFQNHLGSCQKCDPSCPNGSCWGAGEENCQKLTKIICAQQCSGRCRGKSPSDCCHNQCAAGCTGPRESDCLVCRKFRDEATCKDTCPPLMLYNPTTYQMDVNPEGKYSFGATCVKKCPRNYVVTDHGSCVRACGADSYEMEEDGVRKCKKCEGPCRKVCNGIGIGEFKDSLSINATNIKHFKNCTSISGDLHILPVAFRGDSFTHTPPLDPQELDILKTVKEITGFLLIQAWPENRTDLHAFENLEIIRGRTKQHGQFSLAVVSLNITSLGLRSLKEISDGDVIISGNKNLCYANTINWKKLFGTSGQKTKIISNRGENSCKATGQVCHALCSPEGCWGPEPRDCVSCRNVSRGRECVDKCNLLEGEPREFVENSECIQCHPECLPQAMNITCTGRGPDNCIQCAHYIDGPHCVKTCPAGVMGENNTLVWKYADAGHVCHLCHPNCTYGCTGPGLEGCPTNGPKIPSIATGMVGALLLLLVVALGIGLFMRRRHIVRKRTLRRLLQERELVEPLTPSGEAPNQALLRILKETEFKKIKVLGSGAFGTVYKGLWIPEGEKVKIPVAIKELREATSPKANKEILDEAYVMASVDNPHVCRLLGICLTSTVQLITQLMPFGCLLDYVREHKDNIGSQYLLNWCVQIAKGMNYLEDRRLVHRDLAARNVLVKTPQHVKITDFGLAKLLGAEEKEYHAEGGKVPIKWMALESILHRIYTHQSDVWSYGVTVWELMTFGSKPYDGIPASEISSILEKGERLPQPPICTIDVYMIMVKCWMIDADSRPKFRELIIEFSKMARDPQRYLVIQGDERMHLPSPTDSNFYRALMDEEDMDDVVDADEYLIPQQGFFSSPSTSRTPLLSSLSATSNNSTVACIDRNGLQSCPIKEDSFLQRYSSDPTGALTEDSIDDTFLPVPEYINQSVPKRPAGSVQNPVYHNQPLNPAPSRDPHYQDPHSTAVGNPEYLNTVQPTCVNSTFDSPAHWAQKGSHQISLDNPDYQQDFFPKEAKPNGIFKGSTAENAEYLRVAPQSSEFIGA
T3 sequence (P06213 1023-1298 limits assumed, species assumed): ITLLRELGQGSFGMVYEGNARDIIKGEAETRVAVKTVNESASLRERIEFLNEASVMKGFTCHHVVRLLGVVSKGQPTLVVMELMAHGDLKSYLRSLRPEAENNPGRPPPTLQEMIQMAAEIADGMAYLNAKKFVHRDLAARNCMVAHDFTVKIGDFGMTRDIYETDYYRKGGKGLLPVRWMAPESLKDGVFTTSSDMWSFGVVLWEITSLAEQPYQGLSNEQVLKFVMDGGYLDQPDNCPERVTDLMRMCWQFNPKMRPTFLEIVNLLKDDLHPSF
T2 sequence (P12931 whole entry, species assumed): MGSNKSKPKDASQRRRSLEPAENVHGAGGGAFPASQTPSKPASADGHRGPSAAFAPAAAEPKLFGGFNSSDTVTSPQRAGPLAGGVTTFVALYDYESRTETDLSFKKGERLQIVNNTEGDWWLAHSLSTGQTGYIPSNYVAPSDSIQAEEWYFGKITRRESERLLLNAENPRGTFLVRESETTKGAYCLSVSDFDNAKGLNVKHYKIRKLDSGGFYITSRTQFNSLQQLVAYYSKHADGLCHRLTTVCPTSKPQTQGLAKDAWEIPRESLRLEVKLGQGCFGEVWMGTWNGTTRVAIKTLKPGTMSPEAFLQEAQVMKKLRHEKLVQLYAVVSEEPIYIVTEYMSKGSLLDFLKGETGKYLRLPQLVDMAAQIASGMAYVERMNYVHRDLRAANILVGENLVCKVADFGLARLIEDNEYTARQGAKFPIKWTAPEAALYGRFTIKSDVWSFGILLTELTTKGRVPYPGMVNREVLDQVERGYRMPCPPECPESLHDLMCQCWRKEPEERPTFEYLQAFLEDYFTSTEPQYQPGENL
Protocol for Protein kinase C (PKC): Protein kinase C (PKC) is obtained as a rat brain preparation from Promega.
The PKC assay is performed as previously described by Martiny-Baron, et al., J. Biol. Chem. 268: 9194-9197 (1993).

Consider `COc1ccc2c(c1)ncn2-c1ccc(N)cc1` [Example 45, 1-(4-Aminophenyl)-5-methoxybenzimidazole Dihydrochloride], for which the pIC50 was 4.74 in test [1]; under 4.30 against c-Src; under 4.30 on Protein kinase C (PKC); under 4.30 against insulin receptor (INSr); over 4.40 in [2]; 4.43 in [3]. Besides, the figures for the negative logarithm of the IC50 (pIC50) in [4] and in test [5] were 5.46 and 6.52, respectively.
As for `COc1ccc2ncn(-c3ccccc3)c2c1` [Example 40, 6-Methoxy-1-phenylbenzimidazole], the results for the pIC50 in test [4] and in [5] were under 5.00 and 5.19, respectively.
As to `c1ccc(-n2cnc3cc(OCCCCN4CCOCC4)ccc32)cc1` [Example 59, 5-[4-(4-Morpholino)butoxy]-1]phenylbenzimidazole Dihydrochloride], the pIC50 is 4.92 in test [1]; under 4.60 in the test with SW-620 cells [6]; 4.60 at c-Src; under 4.60 in the test with SW-620 cells [7] (setting [8]); 5.66 in test [4]; 6.52 in test [5].
`CN(C)CCCOc1ccc2c(c1)ncn2-c1ccccc1` [Example 37, 5-[3--(N,N-Dimethylamino)propoxyl]-1-phenylbenzimidazole Dihydrochloride]: the pIC50 in [1] was 5.39; against c-Src it was 4.85; against Protein kinase C (PKC) it was under 4.30; at insulin receptor (INSr), under 4.30; in test [2], under 4.40; in test [3], 4.57. The pIC50 in test [5] is 6.70.
For `c1ccc(-n2cnc3cc(OCCN4CCOCC4)ccc32)cc1` [Example 38, 5-[2-(4-Morpholino)ethoxy]-1-phenylbenzimidazole Dihydrochloride], the pIC50 is 4.55 in test [1]; under 4.30 on c-Src; under 4.30 at Protein kinase C (PKC); under 4.30 on insulin receptor (INSr); under 4.40 in test [2]; 4.35 in [3]. The pIC50 in [4] and in [5] was 6.15 throughout.
Consider `Nc1ccc(-n2cnc3ccccc32)cc1` [Example 8, 1-(4-Aminophenyl)benzimidazole Dihydrochloride], for which the results for the pIC50 in [4] and in test [5] were under 5.00 and 5.25, respectively.
For the molecule `Oc1cccc2c1ncn2-c1ccccc1` [Example 11, 4-Hydroxy-1-phenylbenzimidazole Hydrochloride], the negative-log IC50 (pIC50) was under 4.60 with SW-620 cells [6]; under 4.30 against insulin receptor (INSr); under 4.30 in test [2]; under 5.30 with SW-620 cells [7] (SW-620, read-out: SW-620 Clonogenic IC50); 5.68 in the test with SW-620 cells [7] (setting [8]); under 5.00 in [4]. In test [5], this molecule gave a negative-log IC50 (pIC50) of 4.97.
For the molecule `O=C(O)c1ccc2c(c1)ncn2-c1ccccc1` [Example 16, 1-Phenylbenzimidazole-5-carboxylic Acid Hydrochloride], the pIC50 in [1] is 4.55; at c-Src it was 4.30; at insulin receptor (INSr), under 4.30; in test [2] it was under 4.30; in [5], 5.03.
In the case of `Cc1ccc2c(c1)ncn2-c1ccccc1` [Example 12, 5-Methyl-1-phenylbenzimidazole Hydrochloride], the negative logarithm of the IC50 (pIC50) is under 4.30 in [1]; under 4.30 against c-Src; under 4.30 against insulin receptor (INSr); 4.30 in test [2]; 5.36 in [5].
Take `c1ccc(-n2cnc3cc(OCCCN4CCOCC4)ccc32)cc1` [Example 39, 5-[3-(4-Morpholino)propoxy]-1-phenylbenzimidazole Dihydrochloride]: the negative logarithm of the IC50 (pIC50) in [1] was 5.01; on c-Src, under 4.30; against Protein kinase C (PKC) it was under 4.30; on insulin receptor (INSr), under 4.30; in test [2], under 4.40; in test [3] it was 4.74. In [5], the negative-log IC50 (pIC50) is 6.70.
